Source: US4352792A, “3-Alkoxyflavone antiviral agents” (priority 1979, dated 1982)
In brackets after ≈: the same amount, converted by molar mass. Read-outs that look alike come from different tables or passages of the source.

Experiments:
rhinovirus HGP = test: Inhibition of viral cytopathogenic effect in HeLa cells (rhinovirus HGP); format: cell-based; conditions: Enterovirus, 48 h, read-out: IC50 rhinovirus HGP
Coxsackie virus B1 [1] = test: Inhibition of viral cytopathogenic effect in HeLa cells (Coxsackie virus B1); format: cell-based; conditions: 24 h, read-out: IC50 Coxsackie virus B1
Coxsackie virus B1 [2] = test: Anti-Coxsackie virus activity, lethal infection in mice; conditions: Mus musculus, 504 h, read-out: Survival
acute toxicity in mice = conditions: mouse, in vivo, day 21
influenzavirus A2/Adachi = test: Anti-influenzavirus activity in mice; conditions: up to 21 days
[3] = 50% inhibition of viral c.p.e., HeLa cells, 2 days at 33° C.
[4] = 50% inhibition of viral c.p.e., HeLa cells, 1 day at 37° C.

SMILES	IC50 (rhinovirus HGP; [3])	IC50 (Coxsackie virus B1 [1]; [4])	other results
COc1cc(O)c2c(=O)c(OC)c(-c3ccc(OC(=O)[C@@H](N)CCC(=O)O)c(OC)c3)oc2c1 [4'-(L-α-glutamyloxy)-5-hydroxy-3,3',7-trimethoxyflavone]	0.25 µg/mL (≈ 0.528 µM)	0.25 to 0.5 µg/mL (≈ 0.528 to 1.06 µM)	–
COc1cc(O)c2c(=O)c(OC)c(-c3ccc(O[C@@H]4O[C@H](CO)[C@@H](O)[C@H](O)[C@H]4O)c(OC)c3)oc2c1 [4'-(β-D-glucopyranosyloxy)-5-hydroxy-3,3',7-trimethoxyflavone]	0.25 µg/mL (≈ 0.494 µM)	0.25 to 0.5 µg/mL (≈ 0.494 to 0.987 µM)	–
COc1cc(O)c2c(=O)c(OC)c(-c3ccc(OC(C)=O)c(OC)c3)oc2c1 [4'-acetoxy-5-hydroxy-3,3',7-trimethoxyflavone]	0.5 µg/mL (≈ 1.29 µM)	0.25 to 0.5 µg/mL (≈ 0.647 to 1.29 µM)	–
COc1c(-c2ccc(N)cc2)oc2cc(O)cc(O)c2c1=O [4'-amino-5,7-dihydroxy-3-methoxyflavone]	1 to 3 µg/mL (≈ 3.34 to 10 µM)	3 to 10 µg/mL (≈ 10 to 33.4 µM)	–
COc1cc(O)c2c(=O)c(OC)c(-c3ccc(N)cc3)oc2c1 [4'-amino-5-hydroxy-3,7-dimethoxyflavone]	3 µg/mL (≈ 9.58 µM)	10 to 30 µg/mL (≈ 31.9 to 95.8 µM)	–
COc1cc(OC)c2c(=O)c(OC)c(-c3ccc(O)c(OC)c3)oc2c1 [4'-hydroxy-3,3',5,7-tetramethoxyflavone]	2 to 7 µg/mL (≈ 5.58 to 19.5 µM)	6 to 7 µg/mL (≈ 16.7 to 19.5 µM)	–
COc1ccc(-c2oc3cc(O)cc(O)c3c(=O)c2OC)cc1 [5,7-dihydroxy-3,4'-dimethoxyflavone]	–	–	IC50 (rhinovirus HGP; HeLa): 0.5 µg/mL (≈ 1.59 µM); IC50 (Coxsackie virus B1 [1]; HeLa): > 4 µg/mL
COc1cc(OC(=O)C(C)C)c2c(=O)c(OC)c(-c3ccc(OC(=O)C(C)(C)C)c(OC)c3)oc2c1 [5-(isobutyryloxy)-3,3',7-trimethoxy-4'-(pivaloyloxy)-flavone]	0.3 µg/mL (≈ 0.602 µM)	0.3 to 1 µg/mL (≈ 0.602 to 2.01 µM)	responders at 10 mg/kg (Coxsackie virus B1 [2]; po): 30%; responders at 20 mg/kg (Coxsackie virus B1 [2]; po): 40%
COc1cc(O)c2c(=O)c(OC)c(-c3ccc(OC(=O)C(C)(C)C)c(OC)c3)oc2c1 [5-hydroxy-3,3',7-trimethoxy-4'-(pivaloyloxy)-flavone]	0.3 µg/mL (≈ 0.7 µM)	0.3 to 1 µg/mL (≈ 0.7 to 2.33 µM)	–
COc1ccc(-c2oc3cc(OC)cc(O)c3c(=O)c2OC)cc1 [5-hydroxy-3,4',7-trimethoxyflavone]	1 µg/mL (≈ 3.05 µM)	> 8 µg/mL	–
COc1cc(O)c2c(=O)c(OC)c(-c3ccc(OC(=O)[C@@H](N)CCCCN)c(OC)c3)oc2c1 [5-hydroxy-4'-(L-lysyloxy)-3,3',7-trimethoxyflavone]	0.25 µg/mL (≈ 0.529 µM)	–	IC50 (Coxsackie virus B1 [1]; HeLa): 0.25 µg/mL (≈ 0.529 µM); LD50 at 504 h (acute toxicity in mice; ip, single dose i.p., dissolved in dimethyl sulfoxide, read-out: LD50 i.p.): 1000 mg/kg; LD50 at 504 h (acute toxicity in mice; po, single dose p.o., suspended in 0.5% carboxymethylcellulose, read-out: LD50 p.o.): > 5000 mg/kg; responders at 10 mg/kg (Coxsackie virus B1 [2]; iv): 54%
NC12CC3CC(CC(C3)C1)C2 [amantadine, reference compound]	–	–	Survivals (%) (influenzavirus A2/Adachi; 20 mg/kg × 9, i.p.): 0%; Survivals (influenzavirus A2/Adachi; 40 mg/kg × 9, i.p., survivors/total): 2/7; Survivals (%) (influenzavirus A2/Adachi; 40 mg/kg × 9, i.p.): 29%
